Assay results taken from article PMC7468108 (Communications Biology, 2020).

Key:
[1] = molecular target: T1, Aβ42 (Homo sapiens, UniProt P05067); assay: ThT-binding assay, inhibition of Aβ42 aggregation; assay type: biochemical; conditions: for % amyloid of Aβ42: Aβ42 10 µM; for Normalized ThT fluorescence: Aβ42:compound 1:5
T1 construct: purchased rPeptide (USA)
Procedure: ThT is known to intercalate within the amyloid fibrils resulting in fluorescence emission proportionate to the amyloid growth.
The resulting thin films were dissolved in PBS (100 mM, pH 7.4) and sonicated for 5 min to get a stock concentration of 50 µM, which immediately diluted to required concentration for an experiment. Stock solutions of ThT (4 mM in PBS) and hybrid molecules (10 mM in PBS) were prepared. All the stock solutions were diluted according to the requirement.
The experiment was performed according to the previous report. […] […] Excitation and emission wavelengths were set at 440 nm and 485 nm, respectively.

[2] = molecular target: T1, Aβ42; assay: CD spectroscopy of Aβ42 aggregated with the tested molecules; conditions: 5-fold molar excess of compound
Procedure: The blank was subtracted from the acquired CD spectra. For the CD study in the presence of the tryptophan-galacosylamine molecules, the spectra of hybrid molecules were also recorded separately and subtracted from the respective sample spectra. The normalized data were plotted using Origin pro 2015 software.

[3] = molecular target: T2, hIAPP (Homo sapiens, UniProt P10997); assay: TEM of hIAPP fibrils formed with the tested molecules; conditions: 5-fold molar excess of compound
T2 construct: hIAPP is a 37-amino acid neuroendocrine peptide hormone; purchased Peptide 2.0 (USA)
T2 sequence (P10997 34-70 limits assumed): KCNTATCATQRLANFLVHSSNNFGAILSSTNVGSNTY
Procedure: When hIAPP was incubated with 5-fold molar excess of the hybrid molecules, no typical fibrillar assemblies were observed, rather some amorphous aggregates of different sizes were detected (Fig. 4, upper panel).
Samples (10 µL) were placed for 2 min on 400-mesh copper grids covered with carbon-stabilized Formvar film (Electron Microscopy Sciences (EMS), Hatfield, PA). Excess fluid was removed, and grids were negatively stained with 2% uranyl acetate solution (10 µL) for 2 min. After excess fluid removal, the samples were visualized using a JEM-1400 TEM (JEOL), operated at 80 kV.

T1 sequence (P05067 672-713 limits assumed): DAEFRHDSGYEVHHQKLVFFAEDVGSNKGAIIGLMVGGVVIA

NC(Cc1c[nH]c2ccccc12)C(=O)NC(Cc1c[nH]c2ccccc12)C(=O)O (stereo not shown) [WW]
inhibition of Aβ42 fibril formation (ThT), in words ([1]; any molar ratio (5:1, 1:1, 1:5)): no inhibition effect
% amyloid of Aβ42 ([1]; molar ratio Aβ42:tested molecule 1:1): 98.904%
% amyloid of Aβ42 ([1]; molar ratio Aβ42:tested molecule 1:5): 105.519%
% amyloid of Aβ42 ([1]; molar ratio Aβ42:tested molecule 5:1): 93.190%
Normalized ThT fluorescence ([1]; time 0.000 h): 100.247
Normalized ThT fluorescence ([1]; time 0.167 h): 60.188
Normalized ThT fluorescence ([1]; time 0.333 h): 57.612
Normalized ThT fluorescence ([1]; time 0.500 h): 73.246
Normalized ThT fluorescence ([1]; time 0.667 h): 91.915
Normalized ThT fluorescence ([1]; time 0.833 h): 133.372
Normalized ThT fluorescence ([1]; time 1.000 h): 185.130
Normalized ThT fluorescence ([1]; time 1.167 h): 238.325
Normalized ThT fluorescence ([1]; time 1.333 h): 306.731
Normalized ThT fluorescence ([1]; time 1.500 h): 377.171
Normalized ThT fluorescence ([1]; time 1.667 h): 441.860
Normalized ThT fluorescence ([1]; time 1.833 h): 512.406
Normalized ThT fluorescence ([1]; time 2.000 h): 563.139
Normalized ThT fluorescence ([1]; time 2.167 h): 622.335
Normalized ThT fluorescence ([1]; time 2.333 h): 703.467
Normalized ThT fluorescence ([1]; time 2.500 h): 748.995
Normalized ThT fluorescence ([1]; time 2.667 h): 831.052
Normalized ThT fluorescence ([1]; time 2.833 h): 768.926
Normalized ThT fluorescence ([1]; time 3.000 h): 842.887
Normalized ThT fluorescence ([1]; time 3.167 h): 889.978
Normalized ThT fluorescence ([1]; time 3.333 h): 935.606
Normalized ThT fluorescence ([1]; time 3.500 h): 870.330
Normalized ThT fluorescence ([1]; time 3.667 h): 968.307
Normalized ThT fluorescence ([1]; time 3.833 h): 972.259
Normalized ThT fluorescence ([1]; time 4.000 h): 873.484
Normalized ThT fluorescence ([1]; time 4.167 h): 934.106
Normalized ThT fluorescence ([1]; time 4.333 h): 1006.391
Normalized ThT fluorescence ([1]; time 4.500 h): 929.674
Normalized ThT fluorescence ([1]; time 4.667 h): 937.654
Normalized ThT fluorescence ([1]; time 4.833 h): 1043.183
Normalized ThT fluorescence ([1]; time 5.000 h): 1070.273
Normalized ThT fluorescence ([1]; time 5.167 h): 1001.135
Normalized ThT fluorescence ([1]; time 5.333 h): 988.346
Normalized ThT fluorescence ([1]; time 5.500 h): 1039.570
Normalized ThT fluorescence ([1]; time 5.667 h): 1028.736
Normalized ThT fluorescence ([1]; time 5.833 h): 1034.411
Normalized ThT fluorescence ([1]; time 6.000 h): 1074.727
Normalized ThT fluorescence ([1]; time 6.167 h): 1044.333
Normalized ThT fluorescence ([1]; time 6.333 h): 1117.377
Normalized ThT fluorescence ([1]; time 6.500 h): 1116.291
Normalized ThT fluorescence ([1]; time 6.667 h): 1054.239
Normalized ThT fluorescence ([1]; time 6.833 h): 1138.465
Normalized ThT fluorescence ([1]; time 7.000 h): 1115.829
Normalized ThT fluorescence ([1]; time 7.167 h): 1058.156
Normalized ThT fluorescence ([1]; time 7.333 h): 1094.730
Normalized ThT fluorescence ([1]; time 7.500 h): 1092.412
Normalized ThT fluorescence ([1]; time 7.667 h): 1062.031
Normalized ThT fluorescence ([1]; time 7.833 h): 1136.103
Normalized ThT fluorescence ([1]; time 8.000 h): 1128.627
Normalized ThT fluorescence ([1]; time 8.167 h): 1116.746
Normalized ThT fluorescence ([1]; time 8.333 h): 1080.689
Normalized ThT fluorescence ([1]; time 8.500 h): 1146.007
Normalized ThT fluorescence ([1]; time 8.667 h): 1085.963
Normalized ThT fluorescence ([1]; time 8.833 h): 1146.093
Normalized ThT fluorescence ([1]; time 9.000 h): 1168.158
Normalized ThT fluorescence ([1]; time 9.167 h): 1195.194
Normalized ThT fluorescence ([1]; time 9.333 h): 1188.939
Normalized ThT fluorescence ([1]; time 9.500 h): 1216.176
Normalized ThT fluorescence ([1]; time 9.667 h): 1201.344
Normalized ThT fluorescence ([1]; time 9.833 h): 1137.291
Normalized ThT fluorescence ([1]; time 10.000 h): 1184.898
Normalized ThT fluorescence ([1]; time 10.167 h): 1153.959
Normalized ThT fluorescence ([1]; time 10.333 h): 1205.518
Normalized ThT fluorescence ([1]; time 10.500 h): 1174.187
Normalized ThT fluorescence ([1]; time 10.667 h): 1185.205
Normalized ThT fluorescence ([1]; time 10.833 h): 1189.623
Normalized ThT fluorescence ([1]; time 11.000 h): 1150.543
Normalized ThT fluorescence ([1]; time 11.167 h): 1169.609
Normalized ThT fluorescence ([1]; time 11.333 h): 1161.417
Normalized ThT fluorescence ([1]; time 11.500 h): 1208.267
Normalized ThT fluorescence ([1]; time 11.667 h): 1187.121
Normalized ThT fluorescence ([1]; time 11.833 h): 1199.506
Normalized ThT fluorescence ([1]; time 12.000 h): 1229.396
Normalized ThT fluorescence ([1]; time 12.167 h): 1189.375
Normalized ThT fluorescence ([1]; time 12.333 h): 1145.079
Normalized ThT fluorescence ([1]; time 12.500 h): 1220.539
Normalized ThT fluorescence ([1]; time 12.667 h): 1203.612
Normalized ThT fluorescence ([1]; time 12.833 h): 1183.933
Normalized ThT fluorescence ([1]; time 13.167 h): 1197.309
Normalized ThT fluorescence ([1]; time 13.333 h): 1166.138
Normalized ThT fluorescence ([1]; time 13.500 h): 1200.493
Normalized ThT fluorescence ([1]; time 13.667 h): 1198.718
Normalized ThT fluorescence ([1]; time 13.833 h): 1242.576
Normalized ThT fluorescence ([1]; time 14.000 h): 1232.657
Normalized ThT fluorescence ([1]; time 14.167 h): 1186.307
Normalized ThT fluorescence ([1]; time 14.333 h): 1161.142
Normalized ThT fluorescence ([1]; time 14.500 h): 1146.151
Normalized ThT fluorescence ([1]; time 14.667 h): 1198.390
Normalized ThT fluorescence ([1]; time 14.833 h): 1196.409
Normalized ThT fluorescence ([1]; time 15.000 h): 1194.696
Normalized ThT fluorescence ([1]; time […]): 1190.377
effect on Aβ42 secondary structure (CD), in words [2]: No significant variation
hIAPP fibril morphology (TEM), in words [3]: clearly visible in a more densely packed network
